Measured values taken from patent publication US9850343B2, “Method for producing liquid crystalline polyester, and liquid crystalline polyester” (TORAY Industries, Inc., priority 2013, dated 2017).

Assay: Acid dissociation constant (pKa) in aqueous sulfonic acid solution
Type: physicochemical
Settings: aqueous sulfonic acid solution titrated at 25° C. with aqueous sodium hydroxide; from pH at 50% neutralization
Protocol: Examples of the method for measuring pKa include a method in which an aqueous aliphatic sulfonic acid solution is titrated with a titrant such as sodium hydroxide at 25° C., and pKa is calculated from the pH value at the time point when 50% neutralization was achieved.
(7) Acid Dissociation Constant (pKa) in Aqueous Sulfonic Acid Solution
The aqueous sulfonic acid solution used in each of Examples and Comparative Examples was subjected to titration at 25° C. using an aqueous sodium hydroxide solution, and the acid dissociation constant was calculated based on the pH value at the time point when 50% neutralization was achieved.

SMILES	pKa
CCS(=O)(=O)O [ethanesulfonic acid]	-1.3
CCCCCCCCCCCCS(=O)(=O)O [n-dodecylsulfonic acid]	0.3
